Test results reported in patent US9949970B2, “Synthesis of new benzothiazole derivatives as potential anti-tubercular agents” (priority 2010, dated 2018).
In brackets after ≈: the same amount, converted by molar mass. Read-outs that look alike come from different tables or passages of the source.

What was measured:
[1] = tested on: M. tuberculosis H37Rv; settings: closest benzothiazole compounds; cited from earlier work
[2] = tested on: M. tuberculosis H37Rv; assay: Antimycobacterial activity: MIC by broth microdilution / Nitrate Reductase Assay; format: cell-based, Mycobacterium tuberculosis; settings: lowest concentration showing no colour change (NRA)
[3] = tested on: M. tuberculosis (H37Rv); assay: In vivo efficacy in lungs of infected mice; design: species or system Swiss albino mice; settings: 25 mg/kg
[4] = tested on: AML-12 cell lines; assay: Cytotoxicity MTT assay on AML-12 cell lines; format: cell-based
Method: The potent compounds 3j, 4e, 6a, 6f, 6g, 6i, and 6p were evaluated for cytotoxic effect on AML-12 cell lines using MTT assay, in a 96 well plate format. Cells were incubated in Dulbecco's Modified Eagle's Medium (DMEM) containing 10% fetal calf serum (FCS) with the test material (2-100 μg/ml) for 24 hrs. at 37° C. in CO2 incubator. After the completion of incubation 3-(4,5-dimethylthiazol-2-yl)-2,5-diphenyltetrazolium bromide (MTT) was added and cells were further incubated for 3 h at 37° C. in CO2 incubator. Formation of formazan salt by mitochondrial dehydrogenases, and was determined by Elisa reader at 565 nm (Multiskan Spectrum; Thermo Electron Corporation, USA). The percentage cytotoxicity was calculated with respect to the untreated cells.

Structure (SMILES) | MIC [1] | also measured
O=[N+]([O-])c1ccc(CSc2nc3ccccc3s2)c([N+](=O)[O-])c1 | 2 µg/mL (≈ 5.76 µM) | –
O=[N+]([O-])c1cc(CSc2nc3ccccc3s2)cc([N+](=O)[O-])c1 | 2 µg/mL (≈ 5.76 µM) | –
COC(=O)[C@H](NC(=O)c1cc(COc2ccc3nc(C)sc3c2)on1)c1ccccc1 | 1.9 µg/mL (≈ 4.34 µM) | –
Clc1ccccc1/C=N/c1nc2ccccc2s1 | 73 µg/mL (≈ 268 µM) | –
CC(=NNC1CSC(c2ccc3c(c2)CCC3)=N1)c1ccc(C)cc1 (stereo not drawn) | >6.5 µg/mL | –
COC(=O)C(NC(=O)c1cc(COc2ccc3nc(C)sc3c2)on1)c1ccccc1 (stereo not drawn) | 1.4 µg/mL (≈ 3.2 µM) | –
O=C(Nc1nc2ccc(NC(=O)c3ccc([N+](=O)[O-])o3)cc2s1)c1ccc(F)cc1 [Compound 6f, N2-{2-[(4-fluorobenzoyl)amino]-1,3-benzothiazol-6-yl}-5-nitrofuramide] | – | MIC [2]: 0.5 µg/mL (≈ 1.17 µM); In vivo activity (result in words) ([3]; mice, lung): bacteriostatic activities; Decrease of bacterial load in lung with late control (protections) ([3]; mice, versus late control): 1.0; Log10 CFU/left Lung ([3]; infected female Swiss albino mice, left lung): 6.0 ± 0.13; Cytotoxicity ([4]; AML-12 cell line, MTT, 24 hrs, test material 2-100 μg/ml): >100 µg/mL; Cytotoxicity (result in words) ([4]; AML-12 cell lines, MTT assay): no cytotoxicity
